Results published in patent US20170066717A1, “NEW PHENYLAZETIDINECARBOXYLATE OR -CARBOXAMIDE COMPOUNDS” (INVENTIVA, priority 2014, published 2017).

Columns and labels:
NURR-1/RXRα = target: T1, NURR-1/RXRα (Homo sapiens, UniProt P19793); assay: Transactivation test, NURR-1-Gal4/RXRα, luciferase reporter in Cos-7 cells; format: cell-based; details: for Emax: COS-7, induction level relative to reference XCT0135908 at 2×10^−5 M (=100%), read-out: hNurr1_RXRaFL Emax (%); for EC50: Cos-7 cells, NURR-1-Gal4/RXRα, luciferase reporter, read-out: hNurr1_RXRaFL EC50
T1 construct: expressed in transfected cells; host or cells: Cos-7 cells
T1 sequence (P19793 whole entry, the tested form may be a part): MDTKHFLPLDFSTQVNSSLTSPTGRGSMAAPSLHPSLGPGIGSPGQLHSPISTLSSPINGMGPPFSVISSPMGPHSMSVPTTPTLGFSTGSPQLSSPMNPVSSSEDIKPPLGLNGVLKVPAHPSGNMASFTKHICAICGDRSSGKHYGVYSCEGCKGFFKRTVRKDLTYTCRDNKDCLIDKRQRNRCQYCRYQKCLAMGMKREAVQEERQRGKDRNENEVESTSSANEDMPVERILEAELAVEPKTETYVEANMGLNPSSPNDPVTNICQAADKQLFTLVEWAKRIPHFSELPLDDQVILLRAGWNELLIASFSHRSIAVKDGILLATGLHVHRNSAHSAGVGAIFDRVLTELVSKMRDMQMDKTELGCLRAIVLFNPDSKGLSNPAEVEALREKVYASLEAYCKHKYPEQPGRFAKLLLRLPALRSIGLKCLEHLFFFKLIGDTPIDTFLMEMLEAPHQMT
T1 sequence (P43354 whole entry partner, the tested form may be a part): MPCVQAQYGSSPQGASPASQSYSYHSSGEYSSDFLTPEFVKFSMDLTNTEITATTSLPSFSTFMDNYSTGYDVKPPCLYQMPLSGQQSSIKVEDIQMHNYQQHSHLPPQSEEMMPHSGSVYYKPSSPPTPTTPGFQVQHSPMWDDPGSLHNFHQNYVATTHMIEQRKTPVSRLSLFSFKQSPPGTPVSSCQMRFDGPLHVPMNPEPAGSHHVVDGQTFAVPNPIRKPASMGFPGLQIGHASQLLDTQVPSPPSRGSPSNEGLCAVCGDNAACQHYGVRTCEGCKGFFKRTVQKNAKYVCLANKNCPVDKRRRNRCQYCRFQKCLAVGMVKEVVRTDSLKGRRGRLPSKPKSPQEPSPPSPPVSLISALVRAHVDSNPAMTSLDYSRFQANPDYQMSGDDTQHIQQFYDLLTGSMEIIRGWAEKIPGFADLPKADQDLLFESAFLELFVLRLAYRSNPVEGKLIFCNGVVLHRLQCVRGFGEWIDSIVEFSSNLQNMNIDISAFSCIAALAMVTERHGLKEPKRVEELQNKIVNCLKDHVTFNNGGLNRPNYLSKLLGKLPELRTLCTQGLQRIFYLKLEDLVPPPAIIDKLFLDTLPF
T1 sequence (P04386 1-147 partner limits assumed): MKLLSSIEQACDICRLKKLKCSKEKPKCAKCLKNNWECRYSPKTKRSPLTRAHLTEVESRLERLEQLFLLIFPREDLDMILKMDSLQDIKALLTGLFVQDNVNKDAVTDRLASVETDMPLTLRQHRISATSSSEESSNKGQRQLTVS

NURR-1/RXRγ = target: T2, NURR-1/RXRγ (Homo sapiens, UniProt P48443); assay: Transactivation test, NURR-1-Gal4/RXRγ, luciferase reporter in Cos-7 cells; format: cell-based; details: for Emax: COS-7, induction level relative to reference XCT0135908 at 2×10^−5 M (=100%), read-out: hNurr1_RXRgFL Emax (%); for EC50: Cos-7 cells, NURR-1-Gal4/RXRγ, luciferase reporter, read-out: hNurr1_RXRgFL EC50
T2 construct: expressed in transfected cells; host or cells: Cos-7 cells
T2 sequence (P48443 whole entry, the tested form may be a part): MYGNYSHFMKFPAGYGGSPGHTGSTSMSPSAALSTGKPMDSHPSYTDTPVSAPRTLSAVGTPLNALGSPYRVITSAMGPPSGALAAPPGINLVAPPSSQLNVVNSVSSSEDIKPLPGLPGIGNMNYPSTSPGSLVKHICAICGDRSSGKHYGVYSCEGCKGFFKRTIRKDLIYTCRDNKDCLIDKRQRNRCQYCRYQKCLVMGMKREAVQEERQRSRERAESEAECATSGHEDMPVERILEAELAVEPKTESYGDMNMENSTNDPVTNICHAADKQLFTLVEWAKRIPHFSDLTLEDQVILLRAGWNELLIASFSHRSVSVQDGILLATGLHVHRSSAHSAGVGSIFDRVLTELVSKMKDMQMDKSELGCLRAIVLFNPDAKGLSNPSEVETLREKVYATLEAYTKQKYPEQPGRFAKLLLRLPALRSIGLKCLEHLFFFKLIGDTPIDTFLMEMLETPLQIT
T2 sequence (P43354 whole entry partner, the tested form may be a part): as the sequence (P43354 whole entry partner, the tested form may be a part) above
T2 sequence (P04386 1-147 partner limits assumed): as the sequence (P04386 1-147 partner limits assumed) above

[1] = induction level relative to reference XCT0135908 at 2×10^−5 M (=100%)

SMILES | Emax (NURR-1/RXRα) | EC50 (NURR-1/RXRα) | Emax (NURR-1/RXRγ) | EC50 (NURR-1/RXRγ) | hNurr1_RXRaFL Emax (%) (NURR-1/RXRα; [1]) | hNurr1_RXRgFL Emax (%) (NURR-1/RXRγ; [1])
Cc1cc(N2CC(C)(C(=O)O)C2)cc(-n2cc(C)c3cc(C(F)(F)F)ccc32)c1 [Example 55, 3-methyl-1-[3-methyl-5-[3-methyl-5-(trifluoromethyl)indol-1-yl]phenyl]azetidine-3-carboxylic acid] | 80% | 189 nM | 73% | 218 nM | – | –
O=C(O)C1CN(c2cccc(-c3cc4ccccc4c(Cl)n3)c2)C1 [Example 37, 1-[3-(1-chloro-3-isoquinoyl)phenyl]azetidine-3-carboxylic acid] | 62% | > 5000 nM | 99% | 3820 nM | – | –
Cc1cc(-c2cccc3c2OC(F)(F)O3)cc(N2CC(C(=O)O)C2)c1 [Example 25, 1-[3-(2,2-difluoro-1,3-benzodioxal-4-yl)-5-methylphenyl]azetidine-3-carboxylic acid] | 99% | 19 nM | 109% | 50 nM | – | –
Cc1cn(-c2cccc(N3CC(C(=O)NCCCCO)C3)c2)c2ccc(C(F)(F)F)cc12 [Example 156, N-(4-hydroxybutyl)-1-[3-[3-methyl-5-(trifluorometyl)indol-1-yl]phenyl]azetidine-3-carboxamide] | 105% | 3 nM | 117% | 4 nM | – | –
CC1COc2cc(C(F)(F)F)ccc2N1c1cccc(N2CC(C(=O)O)C2)c1 (single isomer, unassigned; isomer 2) [Example 124-2, 1-[3-[3-methyl-7-(trifluromethyl)-2,3-dihydro-1,4-benzoxazin-4-yl]phenyl]azetidine-3-carboxylic acid, isomer 2] | – | 10 nM | – | 17 nM | 107% | 95%
Cc1cn(-c2cccc(N3CC(C(=O)NC(CO)CO)C3)c2)c2ccc(C(F)(F)F)cc12 [Example 161, N-[2-hydroxy-1-(hydroxymethyl)ethyl]-1-[3-[3-methyl-5-(trifluoromethyl)indol-1yl]phenyl]azetidine-3-carboxamide] | 113% | 9 nM | 103% | 23 nM | – | –
Cc1cc(-c2cccc(OC(F)F)c2)cc(N2CC(C(=O)O)C2)c1 [Example 5, 1-[3-[3-(difluoromethoxy)phenyl]-5-methylphenyl]azetidine-3-carboxylic acid] | 124% | 47 nM | 115% | 93 nM | – | –
CN1CC2(CCC2)Oc2cc(C(F)(F)F)cc(-c3cccc(N4CC(C(=O)O)C4)c3)c21 [Example 203, sodium 1-[3-[4-methul-7-(trifluoromethyl)spiro[3H-1,4-benzoxazine-2,1′-cyclobutane]-5-yl]phenyl]azetidine-3-carboxylate] | 80% | 0.69 nM | 63% | 4 nM | – | –
Cn1cc(-c2cc(N3CC(C(=O)O)C3)cc(C(F)(F)F)c2)c2ccc(C(F)(F)F)cc21 [Example 28, 1-[3-[1-methyl-6-(trifluoromethyl)indol-3-yl]-5-(trifluoromethyl)phenyl]azetidine-3-carboxylic acid] | 76% | 45 nM | 58% | 70 nM | – | –
O=C(O)C1CN(c2cccc(-c3cc(C(F)(F)F)ccc3OCc3ccccc3)c2)C1 [Example 90, 1-[3-[2-benzyloxy-5-(trifluoromethyl)phenyl]phenyl]azetidine-3-carboxylic acid] | 67% | 6 nM | 57% | 7 nM | – | –
O=C(O)C1CN(c2cccc(-c3cc(C(F)(F)F)ccc3OCc3cccc(Cl)c3)c2)C1 [Example 107, 1-[3-[2-[(3-chlorophenyl)methyoxy]-5-(trifluoromethyl)-phenyl]phenyl]azetidine-3-carboxylic acid] | 48% | 19 nM | 48% | 30 nM | – | –
Cc1cn(-c2cc(C(C)C)cc(N3CC(C(=O)O)C3)c2)c2ccc(C(F)(F)F)cc12 [Example 53, 1-[3-isopropyl-5-[3-methyl-5-(trifluoromethyl)indol-1-yl]phenyl]azetidine-3-carboxylic acid] | 83% | 141 nM | 76% | 212 nM | – | –
Cc1cc(-c2cc(Cl)cc(C(F)(F)F)c2)cc(N2CC(C(=O)O)C2)c1 [Example 16, 1-[3-[3-chloro-5-(trifluoromethyl)phenyl]-5-methylphenyl]azetidine-3-carboxylic acid] | 119% | 2 nM | 103% | 4 nM | – | –
O=C(O)C1CN(c2cccc(-c3cc(C(F)(F)F)ccc3OCc3ccsc3)c2)C1 [Example 111, 1-[3-[2-(3-thienylmethoxy)-5-(trifluoromethyl)phenyl]phenyl]azetidine-3-carboxylic acid] | 94% | 8 nM | 94% | 15 nM | – | –
Cc1cc(-c2cccc(OC(F)(F)F)c2)cc(N2CC(C(=O)O)C2)c1 [Example 1, 1-[3-methyl-5-[3-(trifluoromethoxy)phenyl]phenyl]azetidine-3-carboxylic acid] | 122% | 41 nM | 108% | 69 nM | – | –
Cc1cc(-c2cccc(C3=NC(C)(C)CO3)c2)cc(N2CC(C(=O)O)C2)c1 [Example 19, 1-[3-[3-(4,4-dimethyl-5H-oxazol-2-yl)phenyl]-5-methylphenyl]azetidine-3-carboxylic acid] | 97% | 1430 nM | 71% | 1770 nM | – | –
O=C(O)C1CN(c2cccc(-n3ccc4cc(C(F)(F)F)ccc43)c2)C1 [Example 44, 1-[3-[5-(trifluoromethyl)indol-1-yl]phenyl]azetidine-3-carboxylic acid] | 108% | 7 nM | 108% | 8 nM | – | –
O=C(O)C1CN(c2cccc(-c3cc(OC(F)(F)F)cc4cccnc34)c2)C1 [Example 83, 1-[3-[6-(trifluoromethoxy)-8-quinolyl]phenyl]azetidine-3-carboxylic acid] | 67% | 282 nM | 68% | 596 nM | – | –
Cc1cn(-c2cccc(N3CC(C(=O)NC4CCC4)C3)c2)c2ccc(C(F)(F)F)cc12 [Example 179] | 119% | 8 nM | 144% | 12 nM | – | –
CN(C)c1nc(-c2cccc(N3CC(C(=O)O)C3)c2)cc(C(F)(F)F)n1 [Example 79, 1-[3-[2-(dimethylamino)-6-(trifluoromethyl)pyrimidin-4-yl]phenyl]azetidine-3-carboxylic acid] | 115% | 177 nM | 88% | 543 nM | – | –
Cc1cc(-c2cc(C(F)(F)F)ccc2Cl)cc(N2CC(C(=O)O)C2)c1 [Example 24, 1-[3-[2-chloro-5-(trifluoromethyl)phenyl]-5-methylphenyl]azetidine-3-carboxylic acid] | 114% | 3 nM | 104% | 13 nM | – | –
COCCCNC(=O)C1CN(c2cccc(-n3cc(C)c4cc(C(F)(F)F)ccc43)c2)C1 [Example 172, N-(3-methoxvpypropyl)-1-[3-[3-methyl-5-(trifluoromethyl)indol-1-yl]phenyl]azetidine-3-carboxamide] | 104% | < 1 nM | 114% | 5 nM | – | –
O=C(O)C1CN(c2cccc(N3CC4(CCOC4)c4cc(C(F)(F)F)ccc43)c2)C1 (centres unmarked) [Example 140, 1-[3-[5-(trifluoromethyl)spiro[indoline-3,3′-tetrahydrofuran]-1-yl]phenyl]azetidine-3-carboxylic acid] | 108% | 40 nM | 97% | 30 nM | – | –
Cc1cn(-c2cccc(N3CC(C(=O)NC4CCC(F)(F)CC4)C3)c2)c2ccc(C(F)(F)F)cc12 [Example 183, N-(4,4-difluorocyclophexyl)-1-[3-[3-5-(trifluoromethyl)indol-1-yl]phenyl]-azetidine-3-carboxamide] | 108% | 92 nM | 127% | 316 nM | – | –
CCC(C)Oc1ccc(C(F)(F)F)cc1-c1cccc(N2CC(C(=O)O)C2)c1 (centres unmarked) [Example 105, 1-[3-[2-sec-butoxy-5-(trifluoromethyl)phenyl]phenyl]azetidine-3-carboxylic acid] | 56% | 10 nM | 55% | 19 nM | – | –
Cc1cn(-c2cccc(N3CC(C(=O)N(C)C)C3)c2)c2ccc(C(F)(F)F)cc12 [Example 165, N,N-dimethyl-1-[3-[3-methyl-5-(tirfluormethyl)indol-1-yl]phenyl]azetidine-3-carboxamide] | 103% | 15 nM | 108% | 20 nM | – | –
O=C(O)C1CN(c2cccc(-c3cc(C(F)(F)F)ccc3OCCc3ccccc3)c2)C1 [Example 93, 1-[3-[2-phenyethyloxy-5-(trifluromethyl)phenyl]phenyl]azetidine-3-carboxylic acid] | 58% | 33 nM | 42% | 31 nM | – | –
CC(C)c1cc2c(c(-c3cccc(N4CC(C(=O)O)C4)c3)c1)CCC(C)(C)O2 [Example 70, 1-[3-(7-isopropyl-2,2-dimethylchroman-5-yl)phenyl]azetidine-3-carboxylic acid] | 104% | 9 nM | 120% | 12 nM | – | –
O=C(O)C1CN(c2cccc(-c3cc(Cl)nc(C(F)(F)F)c3)c2)C1 [Example 78] | 93% | 207 nM | 98% | 339 nM | – | –
